Data published in ChEMBL document CHEMBL4602606, “Differentiating the Pharmacodynamics and Toxicology of Macrolide and Ketolide Antibiotics” (J Med Chem, 2020).
≈ marks a conversion by molar mass, not a printed value. Blank lines part the entries; values can stand above or below the compound they belong to.

How the values were obtained:
[1] = test system: Haemophilus influenzae; assay: Antibacterial activity against Haemophilus influenzae; format: functional
[2] = Protein binding in plasma (unknown origin); format: ADME, cell-free; conditions: read-out: PPB
[3] = test system: Streptococcus pneumoniae; assay: Antibacterial activity against erythromycin-resistant Streptococcus pneumoniae; format: functional
[4] = target: Neuronal acetylcholine receptor; alpha3/beta4 (Homo sapiens, UniProt P30926+P32297); assay: Inhibition of human alpha3beta4 nAChR assessed as […] in acetylcholine-induced normalized current at 2 uM (reference value: 78.5 +/- 10 uM); format: protein-complex assay
Chain of Neuronal acetylcholine receptor; alpha3/beta4 (P30926 whole entry): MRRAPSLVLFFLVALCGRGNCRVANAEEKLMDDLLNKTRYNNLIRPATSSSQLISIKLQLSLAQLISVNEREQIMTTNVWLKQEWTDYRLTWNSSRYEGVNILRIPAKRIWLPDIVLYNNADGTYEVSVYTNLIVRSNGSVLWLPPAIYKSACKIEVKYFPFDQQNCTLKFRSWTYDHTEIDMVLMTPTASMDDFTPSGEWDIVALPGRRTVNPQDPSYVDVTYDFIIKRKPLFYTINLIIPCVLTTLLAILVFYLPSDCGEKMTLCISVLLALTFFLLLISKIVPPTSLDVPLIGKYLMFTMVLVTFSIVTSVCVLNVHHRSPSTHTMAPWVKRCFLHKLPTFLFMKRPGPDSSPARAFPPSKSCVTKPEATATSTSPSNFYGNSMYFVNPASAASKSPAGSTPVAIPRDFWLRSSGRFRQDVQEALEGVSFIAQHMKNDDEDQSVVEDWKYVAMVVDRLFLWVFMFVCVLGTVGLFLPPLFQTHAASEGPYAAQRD
Chain of Neuronal acetylcholine receptor; alpha3/beta4 (P32297 whole entry): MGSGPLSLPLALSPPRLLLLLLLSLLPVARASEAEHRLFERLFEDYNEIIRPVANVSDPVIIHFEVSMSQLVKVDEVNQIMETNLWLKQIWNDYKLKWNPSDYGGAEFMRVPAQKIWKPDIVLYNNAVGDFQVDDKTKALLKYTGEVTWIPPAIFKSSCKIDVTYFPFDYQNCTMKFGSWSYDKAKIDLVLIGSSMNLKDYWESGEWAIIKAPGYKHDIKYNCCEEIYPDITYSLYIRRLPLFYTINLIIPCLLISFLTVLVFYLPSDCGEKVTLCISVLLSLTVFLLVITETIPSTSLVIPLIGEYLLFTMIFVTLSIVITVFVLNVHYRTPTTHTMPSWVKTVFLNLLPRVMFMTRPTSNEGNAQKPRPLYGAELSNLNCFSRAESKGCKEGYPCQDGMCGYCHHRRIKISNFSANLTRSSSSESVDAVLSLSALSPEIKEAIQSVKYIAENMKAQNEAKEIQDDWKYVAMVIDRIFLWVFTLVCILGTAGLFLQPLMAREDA

[5] = test system: Streptococcus pneumoniae; assay: Antibacterial activity against erythromycin-susceptible Streptococcus pneumoniae; format: functional
[6] = Inhibition of human nAChR expressed in human TE671 cells assessed as reduction in nicotine-induced current response by whole-cell patch-clamp method; format: cell-based; conditions: TE-671
[7] = Maximum serum concentration in human at 500 mg, po; format: ADME; design: dose 500 mg, route oral
[8] = Terminal half life in human; format: ADME; conditions: read-out: beta t1/2
[9] = Maximum serum concentration in human at 500 mg, po measured within 2 hrs; format: ADME, organism-based; design: dose 500 mg, route oral; conditions: in vivo

Compound: CC[C@H]1OC(=O)[C@H](C)C(=O)[C@H](C)[C@@H](O[C@@H]2O[C@H](C)C[C@H](N(C)C)[C@H]2O)[C@](C)(OC)C[C@@H](C)C(=O)[C@H](C)[C@H]2N(CCCCn3cnc(-c4cccnc4)c3)C(=O)O[C@]12C [TELITHROMYCIN]
MIC [3]: 0.25 µg/mL (≈ 0.308 µM)
EC50 [4]: 132 µM
MIC [5]: 0.06 µg/mL (≈ 0.0739 µM)
IC50 [6]: 3.5 µM

Compound: CC[C@H]1OC(=O)[C@H](C)[C@@H](O[C@H]2C[C@@](C)(OC)[C@@H](O)[C@H](C)O2)[C@H](C)[C@@H](O[C@@H]2O[C@H](C)C[C@H](N(C)C)[C@H]2O)[C@](C)(OC)C[C@@H](C)C(=O)[C@H](C)[C@@H](O)[C@]1(C)O [CLARITHROMYCIN]
Cmax [7]: 2.5 µg/mL

Compound: CC[C@H]1OC(=O)[C@H](C)[C@@H](O[C@H]2C[C@@](C)(OC)[C@@H](O)[C@H](C)O2)[C@H](C)[C@@H](O[C@@H]2O[C@H](C)C[C@H](N(C)C)[C@H]2O)[C@](C)(O)C[C@@H](C)CN(C)[C@H](C)[C@@H](O)[C@]1(C)O [AZITHROMYCIN]
MIC [1]: 0.25 µg/mL (≈ 0.334 µM)
half-life [8]: 48 to 96 h
Cmax [9]: 350 to 450 µg/mL

Now from value to compound:

MIC [1]: 0.5 to 2 µg/mL (≈ 0.681 to 2.73 µM)
Compound: CC[C@H]1OC(=O)[C@H](C)[C@@H](O[C@H]2C[C@@](C)(OC)[C@@H](O)[C@H](C)O2)[C@H](C)[C@@H](O[C@@H]2O[C@H](C)C[C@H](N(C)C)[C@H]2O)[C@](C)(O)C[C@@H](C)C(=O)[C@H](C)[C@@H](O)[C@]1(C)O [ERYTHROMYCIN]

fraction unbound [2]: < 0.04
Compound: CC[C@H]1OC(=O)[C@H](C)C(=O)[C@H](C)[C@@H](O[C@@H]2O[C@H](C)C[C@H](N(C)C)[C@H]2O)[C@](C)(OCC=Cc2cnc3ccccc3c2)C[C@@H](C)C(=O)[C@H](C)[C@H]2NC(=O)O[C@@]21C [CETHROMYCIN]
